Drawing on patent US11498896B2 (The Broad Institute, Inc., priority 2014, dated 2022), this text covers EC50 and IC50 for 28 compounds.

For experiment [1], the target named is T1, human D2R/β-arrestin (Homo sapiens (Human), UniProt P14416). Put plainly: β-arrestin agonist assay (PathHunter). The format is cell-based. Conditions: CHO-K1 cells expressing human D2R/β-arrestin; agonist mode. Here is the method: The detection reagent (9.6 μL, Buffer:Emerald II:Galactor-Star in a 19:5:1 ratio, i.e., 14.06 mL:3.7 mL:0.74 mL=18.5 mL) was then added to the agonist plates.
T1 sequence (P14416 whole entry): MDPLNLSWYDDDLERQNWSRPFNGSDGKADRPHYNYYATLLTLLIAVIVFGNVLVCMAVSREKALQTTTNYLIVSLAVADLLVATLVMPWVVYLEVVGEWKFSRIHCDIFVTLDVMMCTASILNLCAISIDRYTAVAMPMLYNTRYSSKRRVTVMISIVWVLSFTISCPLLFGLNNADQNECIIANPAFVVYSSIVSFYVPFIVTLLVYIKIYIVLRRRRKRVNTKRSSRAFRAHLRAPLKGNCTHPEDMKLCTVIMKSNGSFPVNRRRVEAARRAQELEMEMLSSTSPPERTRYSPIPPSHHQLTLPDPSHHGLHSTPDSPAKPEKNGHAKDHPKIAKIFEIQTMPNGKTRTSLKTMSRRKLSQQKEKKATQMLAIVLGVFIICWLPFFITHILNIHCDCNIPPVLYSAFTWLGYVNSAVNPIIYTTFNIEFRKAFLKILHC

Experiment [2] concerns the target T1, human D2R/β-arrestin. Put plainly: Gi/cAMP agonist assay (Lance Ultra cAMP, forskolin). The format is cell-based. Conditions: CHO-K1 cells expressing human D2R/β-arrestin; agonist mode, 2.5 μM forskolin. Here is the method: Eu-cAMP tracer solution (10 μl, PerkinElmer, 360 μl of Tracer in 17.64 ml kit buffer) and ULight-anti-cAMP solution (10 μl, 120 μL antibody in 17.88 ml kit buffer) was then added to each well.

Experiment [3] addresses T1, human D2R/β-arrestin. Nature of the experiment: cell-based. Conditions: cAMP Antagonist, CHO-K1 cells expressing human D2R/β-arrestin; antagonist mode, 2.5 μM forskolin and 2.7 nM quinpirole.
Description: (§1) Cells were prepared for assays by growing cultures for up to 2 weeks (from about 6-20 passages). A vial of frozen cells was thawed in a water bath held at 37° C. The cells were then transferred into a 50 ml tube with 10 ml growth media. The vial was rinsed with growth media and the contents transferred to the 50 ml tube. The 50 ml tube was centrifuged at 1200 rpm for 5 minutes at room temperature. […] When the cells reached about 90% confluence (approximately 3 days between passages), the cells were passaged and used for either the agonist or antagonist assays as described below.
The cells were prepared for Gi/cAMP assays as described above. The assays were performed using a PE Lance Ultra cAMP kit (TRF0263). The cells were grown on 225 mm dishes, then washed once with 1×PBS (Cellgro) before digestion with 2.5 ml 1× Detachment reagent (DRX 92-0009) for about 2 minutes. PBS (20 ml) was then added to the plate, and the cells were transferred to a 50 ml centrifuge tube, and centrifuged at room temperature using BD Dynac III, at 1200 rpm for 5 minutes. […] The plates were then incubated at room temperature for about 30 minutes before addition of Eu-cAMP tracer solution (10 μl, PerkinElmer) and then ULight-anti-cAMP solution (10 μl) to each well.
Experiment [4] addresses T1, human D2R/β-arrestin. Put plainly: cell-based. Conditions: β-arrestin Antagonist, CHO-K1 cells expressing human D2R/β-arrestin; antagonist mode, quinpirole 130 nM.
Description: as §1
The cells were prepared for β-arrestin assays as described above. The assays were performed using a PathHunter® β-Arrestin Detecting Kit (DiscoveRX). The cells were grown on 225 mm dishes, then washed once with 1×PBS (Cellgro), followed by digestion with 2.5 ml 1× Detachment reagent (DRX 92-0009) for approximately 2 minutes.

Consider `CC1(Oc2cccc([N+](=O)[O-])c2)CCN(CCOc2ccccc2)C1` (stereo not shown) [Example 40, 3-Methyl-3-(3-nitrophenoxy)-1-(2-phenoxyethyl)pyrrolidine], for which the results for the EC50 at human D2R/β-arrestin [1] and on human D2R/β-arrestin [2] were more than 30 µM and 0.1 to 1 µM, respectively. Besides, the IC50 at human D2R/β-arrestin [3] was more than 30 µM; against human D2R/β-arrestin [4], 1 to 10 µM.

For `CC1(Oc2cccc(N)c2)CCN(CCOc2ccccc2)C1` (stereo not shown) [Example 41, 3-((3-methyl-1-(2-phenoxyethyl)pyrrolidin-3-yl)oxy)aniline], the EC50 was more than 30 µM at human D2R/β-arrestin [1] and 0.1 to 1 µM at human D2R/β-arrestin [2]. Further, the IC50 on human D2R/β-arrestin [3] is more than 30 µM; on human D2R/β-arrestin [4], 10 to 30 µM.

Consider `CC1(Oc2cccc(Cl)c2)CCN(CCOc2ccccc2)C1` (stereo not shown) [Example 42, 3-(3-chlorophenoxy)-3-methyl-1-(2-phenoxyethyl)pyrrolidine], for which the EC50 was more than 30 µM at human D2R/β-arrestin [1] and less than 0.1 µM on human D2R/β-arrestin [2]. The figures for the IC50 on human D2R/β-arrestin [3] and at human D2R/β-arrestin [4] were more than 30 µM and 1 to 10 µM, respectively.

Regarding `CC1(Oc2ccc([N+](=O)[O-])cc2)CCN(CCOc2ccccc2)C1` (stereo not shown) [Example 43, 3-Methyl-3-(4-nitrophenoxy)-1-(2-phenoxyethyl)pyrrolidine], the EC50 at human D2R/β-arrestin [1] and on human D2R/β-arrestin [2] was more than 30 µM each time. Besides, the figures for the IC50 against human D2R/β-arrestin [3] and against human D2R/β-arrestin [4] were more than 30 µM and 1 to 10 µM, respectively.

For `CC1(Oc2ccc(N)cc2)CCN(CCOc2ccccc2)C1` (stereo not shown) [Example 44, 4-((3-methyl-1-(2-phenoxyethyl)pyrrolidin-3-yl)oxy)aniline], the results for the EC50 at human D2R/β-arrestin [1] and at human D2R/β-arrestin [2] were 0.1 to 1 µM and less than 0.1 µM, respectively. For the same compound, the IC50 at human D2R/β-arrestin [3] and against human D2R/β-arrestin [4] was more than 30 µM each time.

On to `CC1(Oc2ccccc2[N+](=O)[O-])CCN(CCOc2ccccc2)C1` (stereo not shown) [Example 45, 3-methyl-3-(2-nitrophenoxy)-1-(2-phenoxyethyl)pyrrolidine], for which the EC50 at human D2R/β-arrestin [1] was more than 30 µM; on human D2R/β-arrestin [2], less than 0.1 µM. Also, the IC50 at human D2R/β-arrestin [3] is more than 30 µM; at human D2R/β-arrestin [4], 1 to 10 µM.

`CC1(Oc2ccccc2Cl)CCN(CCOc2ccccc2)C1` (stereo not shown) [Example 47, 3-(2-chlorophenoxy)-3-methyl-1-(2-phenoxyethyl)pyrrolidine]: the values for the EC50 on human D2R/β-arrestin [1] and on human D2R/β-arrestin [2] were more than 30 µM and 0.1 to 1 µM, respectively. For the same compound, the IC50 on human D2R/β-arrestin [3] was more than 30 µM; on human D2R/β-arrestin [4] it was 1 to 10 µM.

Consider `CC1(Oc2ccc(Cl)cc2Cl)CCN(CCOc2ccccc2)C1` (stereo not shown) [Example 48, 3-(2,4-dichlorophenoxy)-3-methyl-1-(2-phenoxyethyl)pyrrolidine], for which the EC50 is more than 30 µM on human D2R/β-arrestin [1] and less than 0.1 µM at human D2R/β-arrestin [2]. Also, the IC50 against human D2R/β-arrestin [3] is more than 30 µM; against human D2R/β-arrestin [4], 10 to 30 µM.

As for `CC1(Oc2cccc(Cl)c2Cl)CCN(CCOc2ccccc2)C1` (stereo not shown) [Example 49, 3-(2,3-dichlorophenoxy)-3-methyl-1-(2-phenoxyethyl)pyrrolidine], the EC50 on human D2R/β-arrestin [1] was more than 30 µM; at human D2R/β-arrestin [2], 0.1 to 1 µM. Besides, the results for the IC50 at human D2R/β-arrestin [3] and against human D2R/β-arrestin [4] were more than 30 µM and 10 to 30 µM, respectively.

As to `CC1(Oc2ccc(F)cc2)CCN(CCOc2ccccc2)C1` (stereo not shown) [Example 51, 3-(4-fluorophenoxy)-3-methyl-1-(2-phenoxyethyl)pyrrolidine], the EC50 on human D2R/β-arrestin [1] is more than 30 µM; at human D2R/β-arrestin [2], less than 0.1 µM. Moreover, the IC50 at human D2R/β-arrestin [3] is more than 30 µM; against human D2R/β-arrestin [4] it was 0.1 to 1 µM.

On to `CC1(Oc2cccc(F)c2)CCN(CCOc2ccccc2)C1` (stereo not shown) [Example 52, 3-(3-fluorophenoxy)-3-methyl-1-(2-phenoxyethyl)pyrrolidine], for which the EC50 on human D2R/β-arrestin [1] is more than 30 µM; at human D2R/β-arrestin [2], less than 0.1 µM. Moreover, the IC50 at human D2R/β-arrestin [3] is more than 30 µM; on human D2R/β-arrestin [4], 1 to 10 µM.

Consider `CC1(Oc2ccccc2C(F)(F)F)CCN(CCOc2ccccc2)C1` (stereo not shown) [Example 56, 3-Methyl-1-(2-phenoxyethyl)-3-(2-(trifluoromethyl)phenoxy) pyrrolidine], for which the EC50 is more than 30 µM at human D2R/β-arrestin [1] and less than 0.1 µM at human D2R/β-arrestin [2]. Besides, the IC50 against human D2R/β-arrestin [3] and at human D2R/β-arrestin [4] was 1 to 10 µM in each case.

Regarding `CC1(Oc2ccccn2)CCN(CCOc2ccccc2)C1` (stereo not shown) [Example 57, 2-((3-methyl-1-(2-phenoxyethyl)pyrrolidin-3-yl)oxy)pyridine], the values for the EC50 at human D2R/β-arrestin [1] and on human D2R/β-arrestin [2] were more than 30 µM and 0.1 to 1 µM, respectively. Moreover, the IC50 was more than 30 µM against human D2R/β-arrestin [3] and 1 to 10 µM at human D2R/β-arrestin [4].

`CC1(Oc2cccnc2)CCN(CCOc2ccccc2)C1` (stereo not shown) [Example 58, 3-((3-methyl-1-(2-phenoxyethyl)pyrrolidin-3-yl)oxy)pyridine]: the EC50 on human D2R/β-arrestin [1] is 1 to 10 µM; on human D2R/β-arrestin [2] it was less than 0.1 µM. The IC50 against human D2R/β-arrestin [3] and against human D2R/β-arrestin [4] was more than 30 µM each time.

For `CC1(Oc2cnccn2)CCN(CCOc2ccccc2)C1` (stereo not shown) [Example 60, 2-((3-methyl-1-(2-phenoxyethyl)pyrrolidin-3-yl)oxy)pyrazine], the EC50 is 0.1 to 1 µM at human D2R/β-arrestin [1] and less than 0.1 µM at human D2R/β-arrestin [2]. Moreover, the IC50 against human D2R/β-arrestin [3] and on human D2R/β-arrestin [4] was more than 30 µM in each case.

For `CC1(Oc2cccc(C(F)(F)F)c2)CCCN(CCOc2ccccc2F)C1` (stereo not shown) [Example 61, 1-(2-(2-Fluorophenoxy)ethyl)-3-methyl-3-(3-(trifluoromethyl)phenoxy) piperidine], the EC50 on human D2R/β-arrestin [1] and at human D2R/β-arrestin [2] was more than 30 µM each time. In addition, the IC50 was in the range of 0.1 to 1 µM against human D2R/β-arrestin [3] and 1 to 10 µM against human D2R/β-arrestin [4].

As to `CC1(Oc2cccc(C(F)(F)F)c2)CCCN(CCOc2cc(F)ccc2F)C1` (stereo not shown) [Example 62, 1-(2-(2,5-Difluorophenoxy)ethyl)-3-methyl-3-(3-(trifluoromethyl)phenoxy)piperidine], the EC50 at human D2R/β-arrestin [1] and on human D2R/β-arrestin [2] was more than 30 µM throughout. Further, the IC50 against human D2R/β-arrestin [3] and on human D2R/β-arrestin [4] was 1 to 10 µM in each case.

Take `CC1(Oc2cccc(C(F)(F)F)c2)CCCN(CCOc2ccccc2Cl)C1` (stereo not shown) [Example 63, 1-(2-(2-Chlorophenoxy)ethyl)-3-methyl-3-(3-(trifluoromethyl)phenoxy) piperidine]: the EC50 at human D2R/β-arrestin [1] and on human D2R/β-arrestin [2] was more than 30 µM each time. Besides, the IC50 at human D2R/β-arrestin [3] and against human D2R/β-arrestin [4] was 1 to 10 µM in each case.

For the compound `CC1(Oc2cccc(C(F)(F)F)c2)CCN(CCOc2ccccc2F)C1` (stereo not shown) [Example 64, 1-(2-(2-fluorophenoxy)ethyl)-3-methyl-3-(3-(trifluoromethyl)phenoxy) pyrrolidine], the figures for the EC50 at human D2R/β-arrestin [1] and on human D2R/β-arrestin [2] were more than 30 µM and 0.1 to 1 µM, respectively. Also, the figures for the IC50 against human D2R/β-arrestin [3] and against human D2R/β-arrestin [4] were more than 30 µM and 10 to 30 µM, respectively.

Turning to `CC1(Oc2cccc(C(F)(F)F)c2)CCN(CCOc2ccccc2Cl)C1` (stereo not shown) [Example 65, 1-(2-(2-Chlorophenoxy)ethyl)-3-methyl-3-(3-(trifluoromethyl)phenoxy) pyrrolidine], the EC50 at human D2R/β-arrestin [1] and on human D2R/β-arrestin [2] was more than 30 µM each time. The values for the IC50 against human D2R/β-arrestin [3] and against human D2R/β-arrestin [4] were 0.1 to 1 µM and 1 to 10 µM, respectively.

For `CC1(Oc2cccc(C(F)(F)F)c2)CCN(CCOc2cc(F)ccc2F)C1` (stereo not shown) [Example 66, 1-(2-(2,5-difluorophenoxy)ethyl)-3-methyl-3-(3-(trifluoromethyl)phenoxy)pyrrolidine], the EC50 on human D2R/β-arrestin [1] is more than 30 µM; at human D2R/β-arrestin [2] it was less than 0.1 µM. In addition, the IC50 was in the range of 10 to 30 µM against human D2R/β-arrestin [3] and 1 to 10 µM on human D2R/β-arrestin [4].

Take `CC1(Oc2ccccc2)CCN(CCOc2cccc(C(F)(F)F)c2)CC1` [Example 67, 4-methyl-4-phenoxy-1-(2-(3-(trifluoromethyl)phenoxy)ethyl)piperidine]: the EC50 at human D2R/β-arrestin [1] is more than 30 µM; on human D2R/β-arrestin [2], less than 0.1 µM. The values for the IC50 at human D2R/β-arrestin [3] and against human D2R/β-arrestin [4] were more than 30 µM and 0.1 to 1 µM, respectively.

With `Cc1ccccc1OCCN1CCC(C)(Oc2ccccc2)CC1` [Example 69, 4-methyl-4-phenoxy-1-(2-(o-tolyloxy)ethyl)piperidine], the EC50 on human D2R/β-arrestin [1] and at human D2R/β-arrestin [2] was less than 0.1 µM in each case. The values for the IC50 against human D2R/β-arrestin [3] and on human D2R/β-arrestin [4] were more than 30 µM and 0.1 to 1 µM, respectively.

Consider `CCc1ccccc1OCCN1CCC(C)(Oc2ccccc2)CC1` [Example 70, 1-(2-(2-Ethylphenoxy)ethyl)-4-methyl-4-phenoxypiperidine], for which the EC50 is more than 30 µM at human D2R/β-arrestin [1] and less than 0.1 µM on human D2R/β-arrestin [2]. Also, the concentration for half-maximal inhibition (IC50) against human D2R/β-arrestin [3] fell in the range of 10 to 30 µM; against human D2R/β-arrestin [4] it was 0.1 to 1 µM.

As for `CC(C)c1ccccc1OCCN1CCC(C)(Oc2ccccc2)CC1` [Example 71, 1-(2-(2-isopropylphenoxy)ethyl)-4-methyl-4-phenoxypiperidine], the concentration for a half-maximal effect (EC50) on human D2R/β-arrestin [1] and on human D2R/β-arrestin [2] was more than 30 µM each time. In addition, the IC50 against human D2R/β-arrestin [3] and against human D2R/β-arrestin [4] was 0.1 to 1 µM in each case.

Consider `COc1ccccc1OCCN1CCC(C)(Oc2ccccc2)CC1` [Example 72, 1-(2-(2-Methoxyphenoxy)ethyl)-4-methyl-4-phenoxypiperidine], for which the EC50 at human D2R/β-arrestin [1] was more than 30 µM; on human D2R/β-arrestin [2] it was less than 0.1 µM. Also, the IC50 against human D2R/β-arrestin [3] was less than 0.1 µM; against human D2R/β-arrestin [4] it was 0.1 to 1 µM.

On to `CC1(Oc2ccccc2)CCN(CCOc2ccc(F)cc2C(F)(F)F)CC1` [Example 75, 1-(2-(4-Fluoro-2-(trifluoromethyl)phenoxy)ethyl)-4-methyl-4-phenoxy piperidine], for which the EC50 on human D2R/β-arrestin [1] and at human D2R/β-arrestin [2] was more than 30 µM in each case. The IC50 on human D2R/β-arrestin [3] and against human D2R/β-arrestin [4] was 0.1 to 1 µM throughout.

`CC1(Oc2ccccc2)CCN(CCOc2cc(F)ccc2C(F)(F)F)CC1` [Example 76, 1-(2-(5-fluoro-2-(trifluoromethyl)phenoxy)ethyl)-4-methyl-4-phenoxypiperidine]: the values for the EC50 at human D2R/β-arrestin [1] and at human D2R/β-arrestin [2] were more than 30 µM and less than 0.1 µM, respectively. Moreover, the IC50 against human D2R/β-arrestin [3] was more than 30 µM; against human D2R/β-arrestin [4], 0.1 to 1 µM.
